Results on eleven compounds are retold here after patent US20250115597A1, “TYK2 INHIBITORS AND COMPOSITIONS AND METHODS THEREOF” (LYNK PHARMACEUTICALS CO. LTD., priority 2021, published 2025).

Read-outs that look alike come from different tables or passages of the source.

Data set [1] deals with T1, Ba/F3-FL-TYK2-P760L cells (Homo sapiens, UniProt P29597, P760L, cells depend on it).
T1 construct: BaF3-FL-T2P760L (nM)
Put plainly: Anti-proliferative assay, Ba/F3-FL-TYK2-P760L cells (Cell-Titer Glo). The class given is cell-based. The following applies: 72 h, read-out: BaF3-FL-T2P760L IC50. In a few lines:
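Compound exposure ran 72 h at 37 °C in 5% CO2 across nine 3-fold concentrations from a 20 μM top dose, added 24 h after seeding 2000 cells/well.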

The target of another data set is T2, TYK2-JH2 domain (Homo sapiens, UniProt P29597).
T2 construct: IC50 on JH2 domain activity (nM)
Briefly: Binding activity test for JH2 domain of TYK2 (Tb-antibody/tracer FRET). The following applies: for JAK1/TYK2 selectivity: ratio JAK1-JH2 IC50 / TYK2-JH2 IC50. In a few lines: (§1)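 FRET read-out after 60 min at 25° C plus overnight at 4° C; tracer displacement detected via Tb-labelled antibody on the JH2 domain. Dose-response used 11 points at 3-fold dilution.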

Data set [2] is described as follows: Hepatocytes metabolic stability assay. The class given is in vitro ADME. The following applies: cryopreserved hepatocytes, human hepatocytes, 1.0×10^6 cells/mL; for CLint scaled at 1 μM: read-out: Human hepatocyte Clint(liver); for half-life at 1 μM: read-out: Human hepatocyte stability T1/2. On the procedure: Hepatocytes Metabolic Stability Assay
The vials of cryopreserved hepatocytes were removed from the liquid nitrogen container and immediately immersed in a 37° C. water bath for approximately 2 min. The melted ice pellets were transferred into tubes containing 50 mL of pre-warmed thawing medium and mixed well by gently inverting the tubes, and then centrifuged at 500 rpm for 3 minutes at room temperature. The supernatants were discarded, and cell pellets were re-suspended by adding appropriate volumes of pre-warmed incubation medium. The cells viability of each species was determined using Trypan Blue exclusion. Add 50 μL of pre-warmed 2× dosing solution to the wells designated for different time points. Then 50 μL of cells suspension (2×10^6 cells/mL) were added into appropriate wells at corresponding time points of T15, T30, T60, T120. Start timing and put the plate in an incubator at 37° C. For TO sample, add 300 μL of ACN containing internal standard to the wells, mix gently, then add 50 μL of pre-warmed hepatocytes solution (2×10^6 cells/mL). The concentration of test compound was 1 μM and 1.0×10^6 cells/mL in the final incubation. At each corresponding time point, test and control compounds reaction samples were stopped by adding 300 μL acetonitrile containing internal standard. All sample plates were thoroughly mixed and centrifuged at 5000×g for 15 minutes. The supernatants were diluted at ratio of 1:1 with ultra-pure water for test and positive controls. Then submitted for LC-MS/MS analysis.
The analyte/internal standard peak area ratios were converted to percentage remaining with the following equation: […]
The in vitro elimination constant, k of test compounds and control compounds were calculated from a log linear plot of % Remaining versus time, then the half-life (T1/2), the estimation of the in vitro hepatic intrinsic clearance (CLint) values were calculated from substrate disappearance rate in hepatocytes incubation: […]

Data set [3] in a line: Microsomal metabolic stability assay. The class given is in vitro ADME. To be noted: pH 7.4, 0.5 mg/mL protein, 1 μM compound. In a few lines: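 Parent loss was tracked by LC/MS/MS at 0, 5, 15, 30 and 45 min, with half-life derived from the ln(% remaining)–time slope. Incubation at 37 °C, pH 7.4 phosphate/EDTA buffer: 0.5 mg/mL microsomes, 1 μM compound, NADPH-regenerated (2 mM).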

In a further data set the test system is pSTAT1. Put plainly: Phosphorylation inhibition of STAT in human whole blood, IFN-alpha stimulated (flow cytometry). Type of data set: cell-based. To be noted: 20 min, read-out: IC50 on pSTAT1 inhibition in h WB. The procedure: Phosphorylation Inhibition of STAT in Human PBMC and Human Whole Blood Testing:
The inhibitory potential of test articles in human PBMC and human whole blood assay was evaluated by the method of flow cytometry.
IFN-alpha will activate JAK1 and TYK2 kinase in T cells by binding to IFN receptors, and then lead to phosphorylation of STAT1 and STAT2. The phosphorylated STAT1 enter nuclear and promote transcription and expression of IFN-gamma. To evaluate the efficacy of TYK2i in T cells, freshly prepared human PBMC or freshly collected human whole blood will be stimulated with certain unit of human IFN-alpha (Universal Type I IFN(1MU), R&D, 11200-2) for 20 mins in incubator. After stimulation, fix cells with Phosflow™ Fix Buffer I (BD, 557870), and then collect fixed cells by centrifugation (500 g, 8 min). Wash cells once with pre-cooled PBS, and then permeabilize cells with cold Perm Buffer III buffer (BD, 558050) for 45 mins on ice. Collect cells by centrifugation (600 g, 8 min) and washed twice with cold PBS. Stain cells with anti-human CD3 (FITC Mouse Anti-Human CD3, BD, 555332) and anti-pSTAT1_Y701(Alexa Fluor 647 Mouse Anti-Stat1 (pY701), BD, 612597) antibodies. Detect pSTAT1 by flow cytometry (CytoFlex S) and analyze data with FlowJo and GraphPad Prism 8 software. IC50 values of test articles were determined using 4-parameter logistic equation.
(Flow cytometry measures light scatter and fluorescence of single cells or particles in a stream.)

Another data set has as its target T3, JAK1-JH2 domain (Homo sapiens, UniProt P23458).
T3 construct: IC50 on JH2 domain activity (nM)
Put plainly: Binding activity test for JH2 domain of JAK1 (Tb-antibody/tracer FRET). In a few lines: as §1

The mark [4] stands for this setting: dog liver microsomes, read-out: Dog LM Clint.
The mark [5] stands for this setting: dog liver microsomes, read-out: Dog LM T½.
[6] abbreviates: human liver microsomes, read-out: Human LM Clint.
Where [7] appears, read: human liver microsomes, read-out: Human LM T½.
Setting [8] is: rat liver microsomes, read-out: Rat LM Clint.
[9] abbreviates: rat liver microsomes, read-out: Rat LM T½.
The mark [10] stands for this setting: human whole blood, IFN-alpha 20 mins, CD3 cells.

T1 sequence (P29597 whole entry P760L): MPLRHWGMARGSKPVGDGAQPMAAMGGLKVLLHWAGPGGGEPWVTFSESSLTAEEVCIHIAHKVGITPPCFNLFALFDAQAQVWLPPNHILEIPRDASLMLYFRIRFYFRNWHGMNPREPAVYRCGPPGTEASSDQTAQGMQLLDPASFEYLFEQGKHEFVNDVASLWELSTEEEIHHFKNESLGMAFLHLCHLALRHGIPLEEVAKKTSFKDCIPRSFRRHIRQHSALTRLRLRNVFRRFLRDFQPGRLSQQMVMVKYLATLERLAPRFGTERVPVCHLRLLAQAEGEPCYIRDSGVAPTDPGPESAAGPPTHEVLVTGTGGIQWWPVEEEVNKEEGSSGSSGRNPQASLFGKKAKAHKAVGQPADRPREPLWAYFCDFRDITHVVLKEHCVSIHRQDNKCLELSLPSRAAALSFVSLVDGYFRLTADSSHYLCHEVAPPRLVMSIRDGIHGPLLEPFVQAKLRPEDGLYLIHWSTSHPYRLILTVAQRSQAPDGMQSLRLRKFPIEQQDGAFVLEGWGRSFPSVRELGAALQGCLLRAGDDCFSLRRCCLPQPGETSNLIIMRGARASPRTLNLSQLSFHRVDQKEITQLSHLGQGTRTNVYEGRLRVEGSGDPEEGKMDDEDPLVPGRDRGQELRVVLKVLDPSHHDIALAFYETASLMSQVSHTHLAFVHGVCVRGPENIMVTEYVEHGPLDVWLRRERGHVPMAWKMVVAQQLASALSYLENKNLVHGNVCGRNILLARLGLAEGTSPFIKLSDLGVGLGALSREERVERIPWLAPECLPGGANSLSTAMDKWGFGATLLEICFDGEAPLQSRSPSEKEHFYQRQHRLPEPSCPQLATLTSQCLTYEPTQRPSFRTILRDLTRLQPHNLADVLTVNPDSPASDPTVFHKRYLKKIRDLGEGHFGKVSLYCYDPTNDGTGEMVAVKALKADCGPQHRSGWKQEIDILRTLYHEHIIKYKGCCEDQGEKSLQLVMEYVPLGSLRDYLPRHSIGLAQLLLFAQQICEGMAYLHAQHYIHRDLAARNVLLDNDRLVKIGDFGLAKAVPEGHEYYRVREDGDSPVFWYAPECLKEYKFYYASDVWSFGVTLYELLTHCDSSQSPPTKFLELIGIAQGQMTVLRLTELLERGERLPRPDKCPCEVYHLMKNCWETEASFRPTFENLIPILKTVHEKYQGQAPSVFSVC
T2 sequence (P29597 589-875 limits assumed): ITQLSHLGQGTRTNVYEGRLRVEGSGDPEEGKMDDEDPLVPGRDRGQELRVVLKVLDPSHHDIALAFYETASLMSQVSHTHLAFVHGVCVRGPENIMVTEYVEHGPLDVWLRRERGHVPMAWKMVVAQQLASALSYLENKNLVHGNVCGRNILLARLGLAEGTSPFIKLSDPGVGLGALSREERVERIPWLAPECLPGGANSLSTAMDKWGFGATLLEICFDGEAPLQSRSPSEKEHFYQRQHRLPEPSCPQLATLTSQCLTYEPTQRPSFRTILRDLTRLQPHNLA
T3 sequence (P23458 583-855 limits assumed): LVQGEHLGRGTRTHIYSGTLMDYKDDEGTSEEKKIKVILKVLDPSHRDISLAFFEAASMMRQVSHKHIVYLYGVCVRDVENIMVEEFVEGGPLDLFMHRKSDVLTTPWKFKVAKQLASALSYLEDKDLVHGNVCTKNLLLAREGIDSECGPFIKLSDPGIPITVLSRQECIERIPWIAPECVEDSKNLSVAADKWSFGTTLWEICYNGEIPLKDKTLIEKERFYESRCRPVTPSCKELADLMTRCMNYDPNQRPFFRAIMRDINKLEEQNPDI

As for `[2H]C([2H])([2H])NC(=O)c1cnc(NC(=O)C2CC2)cc1Nc1nn(CC)c2ccn(CC(F)(F)F)c(=O)c12` [Example 105, 6-(Cyclopropanecarboxamido)-4-((1-ethyl-4-oxo-5-(2,2,2-trifluoroethyl)-4,5-dihydro-1H-pyrazolo[4,3-c]pyridin-3-yl)amino)-N-(methyl-d3)nicotinamide], in data set [1], the GI50 was 146 nM. Besides, the IC50 (in general, the concentration that gives 50% inhibition) at TYK2-JH2 domain amounted to 0.733 nM. The CLint scaled at 1 μM in data set [2] worked out at 8.69 mL/min/kg. The half-life at 1 μM in data set [2] is 3.38 h; in data set [3] (setting [5]), 2.22 h; in data set [3] (setting [7]), 4.14 h; in data set [3] (setting [9]) it was 0.503 h. Besides, the microsomal CLint at 1 μM in data set [3] (setting [4]) is 10.4 µL/min/mg; in data set [3] (setting [6]) it was 5.58 µL/min/mg; in data set [3] (setting [8]), 45.9 µL/min/mg.

With `[2H]C([2H])([2H])NC(=O)c1nnc(NC(=O)C2CC2)cc1Nc1cn(C)c2ccn(C)c(=O)c12` [Example 224, 6-(Cyclopropanecarboxamido)-4-((1,5-dimethyl-4-oxo-4,5-dihydro-1H-pyrrolo[3,2-c]pyridin-3-yl)amino)-N-(methyl-d3)pyridazine-3-carboxamide], in data set [1], the GI50 is 214 nM. In addition, the IC50 in the data set on pSTAT1 (setting [10]) was found to be 426 nM.

For `[2H]C([2H])([2H])NC(=O)c1cnc(NC(=O)[C@@H]2C[C@@H]2F)cc1Nc1ccc2cnn(CC)c2c1OC` (relative stereo) [Example 256, 4-((1-Ethyl-7-methoxy-1H-indazol-6-yl)amino)-6-(cis-2-fluorocyclopropanecarboxamido)-N-(methyl-d3)nicotinamide], the GI50 in data set [1] was 69.5 nM. The IC50 on TYK2-JH2 domain amounted to 0.265 nM; in the data set on pSTAT1 (setting [10]), 256 nM; at JAK1-JH2 domain, 10.8 nM. Further, at TYK2-JH2 domain, the JAK1/TYK2 selectivity is listed as 40.8.

For the compound `[2H]C([2H])([2H])NC(=O)c1cnc(Nc2ccncn2)cc1Nc1cc(F)c2cnn(CC)c2c1OC` [Example 157, 4-((1-Ethyl-4-fluoro-7-methoxy-1H-indazol-6-yl)amino)-N-(methyl-d3)-6-(pyrimidin-4-ylamino)nicotinamide], the GI50 in data set [1] is 53.9 nM. Further, the concentration for half-maximal inhibition (IC50) on TYK2-JH2 domain is 0.357 nM; at JAK1-JH2 domain, 25.2 nM. Further, on TYK2-JH2 domain, the JAK1/TYK2 selectivity turned out to be 70.6. Moreover, the CLint scaled at 1 μM in data set [2] stood at 13.9 mL/min/kg. In addition, the half-life at 1 μM was found to be 2.12 h in data set [2], 0.548 h in data set [3] (setting [5]), 0.289 h in data set [3] (setting [7]) and 0.221 h in data set [3] (setting [9]). The microsomal CLint at 1 μM in data set [3] (setting [4]) was determined as 42.1 µL/min/mg; in data set [3] (setting [6]) it was 79.9 µL/min/mg; in data set [3] (setting [8]) it was 106 µL/min/mg.

Turning to `[2H]C([2H])([2H])NC(=O)c1cnc(NC(=O)C2CC2)cc1Nc1nn(CC2CC2)c2ccn(CC(F)(F)F)c(=O)c12` [Example 203, 6-(Cyclopropanecarboxamido)-4-((1-(cyclopropylmethyl)-4-oxo-5-(2,2,2-trifluoroethyl)-4,5-dihydro-1H-pyrazolo[4,3-c]pyridin-3-yl)amino)-N-(methyl-d3)nicotinamide], the GI50 in data set [1] is 46.6 nM. Further, the IC50 came out at 0.173 nM on TYK2-JH2 domain, 468 nM in the data set on pSTAT1 (setting [10]) and 18.5 nM at JAK1-JH2 domain. Moreover, at TYK2-JH2 domain, the JAK1/TYK2 selectivity worked out at 106.7.

For the compound `[2H]C([2H])([2H])NC(=O)c1cnc(NC(=O)C2CC2)cc1Nc1ccc2ccn(CC)c2c1OC` [Example 244, 6-(Cyclopropanecarboxamido)-4-((1-ethyl-7-methoxy-1H-indol-6-yl)amino)-N-(methyl-d3)nicotinamide], in data set [1], the GI50 came out at 18.1 nM. For the same compound, the IC50 at TYK2-JH2 domain was 0.125 nM; in the data set on pSTAT1 (Homo sapiens), 190 nM; on JAK1-JH2 domain, 4.58 nM. On TYK2-JH2 domain, the JAK1/TYK2 selectivity turned out to be 36.6.

On to `[2H]C([2H])([2H])NC(=O)c1cnc(NC(=O)C2CC2)cc1Nc1cn(C)c2ccn(CCO)c(=O)c12` [Example 113, 6-(Cyclopropanecarboxamido)-4-((5-(2-hydroxyethyl)-1-methyl-4-oxo-4,5-dihydro-1H-pyrrolo[3,2-c]pyridin-3-yl)amino)-N-(methyl-d3)nicotinamide], for which, in data set [1], the GI50 was 2390 nM. The IC50 in the data set on pSTAT1 (setting [10]) amounted to 344 nM.

Take `[2H]C([2H])([2H])NC(=O)c1cnc(NC(=O)C2CC2)cc1Nc1ccc2cnn(CC)c2c1OC([2H])([2H])[2H]` [Example 132, 6-(Cyclopropanecarboxamido)-4-((1-ethyl-7-(methoxy-d3)-1H-indazol-6-yl)amino)-N-(methyl-d3)nicotinamide]: the GI50 in data set [1] turned out to be 70.8 nM. Also, in data set [2], the CLint scaled at 1 μM is 18.9 mL/min/kg and the half-life at 1 μM came out at 1.55 h. In addition, the microsomal CLint at 1 μM in data set [3] (setting [6]) is 24 µL/min/mg. In addition, the half-life at 1 μM in data set [3] (setting [7]) was determined as 0.963 h.

Regarding `[2H]C([2H])([2H])NC(=O)c1cnc(NC(=O)C2CC2)cc1Nc1ccn2ncc(CC#N)c2c1OC` [Example 239, 4-((3-(Cyanomethyl)-4-methoxypyrazolo[1,5-a]pyridin-5-yl)amino)-6-(cyclopropanecarboxamido)-N-(methyl-d3)nicotinamide], in data set [1], the GI50 is 84.7 nM. Moreover, the IC50 at TYK2-JH2 domain is 0.188 nM; in the data set on pSTAT1 (setting [10]), 157 nM; on JAK1-JH2 domain, 5.41 nM. The JAK1/TYK2 selectivity on TYK2-JH2 domain turned out to be 28.8.

With `[2H]C([2H])([2H])NC(=O)c1cnc(NC(=O)C2CC2)cc1Nc1ccn2ncc(Cl)c2c1OC` [Example 235, 4-((3-Chloro-4-methoxypyrazolo[1,5-a]pyridin-5-yl)amino)-6-(cyclopropanecarboxamido)-N-(methyl-d3)nicotinamide], the GI50 in data set [1] came out at 44.7 nM. In addition, the IC50 on TYK2-JH2 domain was found to be 0.262 nM; in the data set on pSTAT1 (setting [10]), 440 nM; on JAK1-JH2 domain, 6.74 nM. The JAK1/TYK2 selectivity on TYK2-JH2 domain was determined as 25.7.

Consider `[2H]C([2H])([2H])NC(=O)c1cnc(NC(=O)C2CC2)cc1Nc1ncc2cnn(CC(F)(F)F)c2c1OC` [Example 266, 6-(Cyclopropanecarboxamido)-4-((7-methoxy-1-(2,2,2-trifluoroethyl)-1H-pyrazolo[4,3-c]pyridin-6-yl)amino)-N-(methyl-d3)nicotinamide], for which, in data set [1], the GI50 was found to be 76.2 nM. Also, the IC50 at TYK2-JH2 domain was determined as 0.287 nM; with pSTAT1 (setting [10]) it was 94.3 nM; at JAK1-JH2 domain, 44.2 nM. For the same compound, the JAK1/TYK2 selectivity on TYK2-JH2 domain was found to be 154.
